Laboratory results reported in patent US6225494A, “Trisubstituted phenyl derivatives having retinoid agonist or inverse agonist type biological activity” (Allergan Sales, Inc., priority 1999, dated 2001).

Tests used:
Assay in all cases: RAR-P-GR holoreceptor transactivation assay (PGR assay)
Type in all cases: cell-based
RARα = target: T1, RARα (Homo sapiens, UniProt P10276, E106G/G107S/G110V); conditions: for EC50: CV-1 cells, luciferase reporter, 18 hours; for Emax: relative to all-trans-retinoic acid, read-out: % Efficiency RARα
T1 construct: expressed in transfected cells; host or cells: CV-1
T1 sequence (P10276 1-462 E106G/G107S/G110V): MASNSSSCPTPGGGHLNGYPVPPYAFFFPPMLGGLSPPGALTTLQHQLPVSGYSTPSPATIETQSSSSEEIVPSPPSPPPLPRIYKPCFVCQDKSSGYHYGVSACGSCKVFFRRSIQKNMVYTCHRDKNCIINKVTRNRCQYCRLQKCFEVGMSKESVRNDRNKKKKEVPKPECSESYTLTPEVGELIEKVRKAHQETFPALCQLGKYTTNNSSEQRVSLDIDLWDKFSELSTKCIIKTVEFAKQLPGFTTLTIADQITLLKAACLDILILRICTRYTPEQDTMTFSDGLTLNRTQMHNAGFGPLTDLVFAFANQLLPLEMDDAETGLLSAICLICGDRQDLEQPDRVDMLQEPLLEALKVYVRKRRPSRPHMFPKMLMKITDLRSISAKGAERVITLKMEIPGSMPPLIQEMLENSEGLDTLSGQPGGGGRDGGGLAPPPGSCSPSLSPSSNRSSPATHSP
T1 sequence (P19793 1-462 partner): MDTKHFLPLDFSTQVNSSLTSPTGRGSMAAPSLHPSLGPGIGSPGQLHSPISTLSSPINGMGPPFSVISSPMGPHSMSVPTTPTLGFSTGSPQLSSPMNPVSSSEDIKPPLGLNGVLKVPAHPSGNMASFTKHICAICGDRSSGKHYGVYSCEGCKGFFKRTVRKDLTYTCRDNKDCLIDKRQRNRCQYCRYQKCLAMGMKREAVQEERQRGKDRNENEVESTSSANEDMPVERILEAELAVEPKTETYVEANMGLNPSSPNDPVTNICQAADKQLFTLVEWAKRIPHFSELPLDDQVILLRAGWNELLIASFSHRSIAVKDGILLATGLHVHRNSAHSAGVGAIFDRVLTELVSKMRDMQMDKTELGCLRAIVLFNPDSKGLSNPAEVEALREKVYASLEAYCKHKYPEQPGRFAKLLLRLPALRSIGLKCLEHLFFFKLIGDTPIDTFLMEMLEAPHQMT
Procedure: (§1) Still another transactivation assay, the "PGR assay" is described in the publication KIein et al. J. Biol. Chem. 271, 22692-22696 (1996) which is expressly incorporated herein by reference, and a detailed description is also provided below. The results of the PGR assay are also expressed in EC50 numbers (nanomolar concentration).
(§2) RAR-P-GR Holoreceptor Transactivation Assay
(§3) CV-1 cells (4×10^5 cells/well) were transiently transfected with the luciferase reporter plasmid MTV-4(R5G)-Luc (0.7 μg/well) containing four copies of the R5G retinoid DNA response element along with the RXRα expression plasmid pRS-hRXRα (0.1 μg/well) and one of the RAR-P-GR expression plasmids (0.05 μg/well) in 12 well plates via calcium phosphate precipitation Chen et al. (1987) Mol. Cell. Biol. 7, 2745-2752, as described by Vein et al. in J. Biol. Chem. 271, 22692, referenced above. The three different RAR-P-GR expression plasmids, pRS-RARα-P-GR, pcDNA3-RARβ-P-GR and pcDNA3-RARγ-P-GR, express RARα, RARβ and RARγ receptors, respectively, which contain modified DNA binding domains such that their "P-boxes" have been altered to that of the glucocorticoid receptor. These RAR-P-GR receptors bind to DNA as heterodimeric complexes with RXR. Specifically, the RAR-P-GR receptors bind retinoic acid response elements designated R5G, comprised of two RAR half sites (nucleotide sequence 5'-GGTTCA-3') separated by 5 base pairs in which the 3'-half site has been modified to that of a glucocorticoid receptor half site, 5'-AGAACA-3'. To allow for various in transfection efficiency a β-galactosidase expression plasmid (0.01 ug/well) was used as an internal control. Alternatively, the assay was performed in a 96-well microtiter plate format (5000 cells/well) in a manner which was identical to that described above except 1/5 of the amount of the DNA-calcium phosphate precipitant (20 μl instead of 100 μl) was applied to each well. Eighteen hours after introduction of the DNA precipitants, cells were rinsed with phosphate buffered saline (PBS) and fed with D-MEM (Gibco-BRL) containing 10% activated charcoal extracted fetal bovine serum (Gemini Bio-Products). After rinsing with PBS, cells were lysed and luciferase activity was measured as previously described in de Wet et al. (1987) Mol. Cell. Biol. 7, 725-737. Luciferase values represent the mean±SEM of triplicate determinations normalized to β-galactosidase activity.

RARβ = target: T2, RARβ (Homo sapiens, UniProt P10826, E106G/G107S/G110V); conditions: for EC50: CV-1 cells, luciferase reporter, 18 hours; for Emax: relative to all-trans-retinoic acid, read-out: % Efficiency RARβ
T2 construct: expressed in transfected cells; host or cells: CV-1
T2 sequence (P10826 1-448 isoform P10826-2 E99G/G100S/G103V): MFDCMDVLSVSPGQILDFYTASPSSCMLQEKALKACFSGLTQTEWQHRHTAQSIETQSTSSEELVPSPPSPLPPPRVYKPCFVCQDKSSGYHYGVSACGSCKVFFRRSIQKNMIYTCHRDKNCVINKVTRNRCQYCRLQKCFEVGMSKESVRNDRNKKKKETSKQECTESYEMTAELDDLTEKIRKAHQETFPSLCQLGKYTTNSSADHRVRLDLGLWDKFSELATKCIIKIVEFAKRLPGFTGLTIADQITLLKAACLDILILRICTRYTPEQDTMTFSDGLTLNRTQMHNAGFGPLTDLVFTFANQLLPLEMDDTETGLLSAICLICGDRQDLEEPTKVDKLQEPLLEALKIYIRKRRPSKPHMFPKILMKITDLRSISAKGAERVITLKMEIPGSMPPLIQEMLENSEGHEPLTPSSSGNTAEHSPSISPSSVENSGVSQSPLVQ
T2 sequence (P19793 1-462 partner): T1 sequence (P19793 1-462 partner)
Procedure: as §1, §2, §3

RARγ = target: T3, RARγ (Homo sapiens, UniProt P13631, E108G/G109S/G112V); conditions: for EC50: CV-1 cells, luciferase reporter, 18 hours; for Emax: relative to all-trans-retinoic acid, read-out: % Efficiency RARγ
T3 construct: expressed in transfected cells; host or cells: CV-1
T3 sequence (P13631 1-454 E108G/G109S/G112V): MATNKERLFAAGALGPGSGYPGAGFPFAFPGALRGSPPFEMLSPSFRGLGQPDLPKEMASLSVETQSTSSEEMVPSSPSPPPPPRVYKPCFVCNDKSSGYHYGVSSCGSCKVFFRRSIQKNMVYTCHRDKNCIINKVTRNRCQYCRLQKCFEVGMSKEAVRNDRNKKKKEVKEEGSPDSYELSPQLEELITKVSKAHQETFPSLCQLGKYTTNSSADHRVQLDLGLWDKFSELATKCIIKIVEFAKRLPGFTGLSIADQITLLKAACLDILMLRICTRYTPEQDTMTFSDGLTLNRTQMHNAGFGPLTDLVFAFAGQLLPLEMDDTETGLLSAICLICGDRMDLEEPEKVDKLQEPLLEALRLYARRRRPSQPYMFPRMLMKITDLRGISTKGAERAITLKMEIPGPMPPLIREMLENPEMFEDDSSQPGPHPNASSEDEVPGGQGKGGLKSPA
T3 sequence (P19793 1-462 partner): T1 sequence (P19793 1-462 partner)
Procedure: as §1, §2, §3

Structure (SMILES)	EC50 (RARα) [µM]	Emax (RARα) [%]	EC50 (RARβ) [µM]	Emax (RARβ) [%]	EC50 (RARγ) [µM]	Emax (RARγ) [%]
COc1ccc(C#Cc2ccc(C(=O)O)cc2)cc1C(=O)c1ccc(C)cc1 [Compound 22, 4-[[4'-methoxy-3'-(4"-methyl)benzoyl]phenylethynyl]benzoic acid]	> 10	0	> 10	0	> 10	0
Cc1ccc(C(=O)c2cc(C#Cc3ccc(C(=O)O)c(F)c3)c(C)cc2O)cc1 [Compound 25, 4-[[4'-Hydroxy-2'-methyl-5'-(4"-methyl)benzoyl]phenylethynyl]-2-fluoro-benzoic acid]	> 10	0	> 10	2	> 10	0
C=C(c1ccc(C)cc1)c1cc(C#Cc2ccc(C(=O)O)cc2)ccc1OC [Compound 12, 4-[[4'-Methoxy-3'-(1-p-tolyl)vinyl]phenylethynyl]benzoic acid]	> 10	0	> 10	1	> 10	5
COCOc1ccc(C#Cc2ccc(C(=O)O)cc2)cc1C(=O)c1ccc(C)cc1 [Compound 13]	> 10	0	> 10	0	> 10	0
C=C(c1ccc(C)cc1)c1cc(C#Cc2ccc(C(=O)O)cc2)ccc1OC(C)C [Compound 28, 4-[[4'-Isopropoxy-3'-(1-p-tolyl)vinyl]phenylethynyl]benzoic acid]	> 10	0	> 10	0	> 10	1
C=C(c1ccc(C)cc1)c1cc(C#Cc2ccc(C(=O)O)cc2)ccc1O [Compound 8, 4-[[4'-Hydroxy-3'-(1-p-tolyl)vinyl]phenylethynyl]benzoic acid]	> 10	1	> 10	3	> 10	3
C=C(c1ccc(C)cc1)c1cc(C#Cc2ccc(C(=O)O)c(F)c2)ccc1OC(C)C [Compound 29, 4-[[4'-Isopropoxy-3'-(1-p-tolyl)vinyl]phenylethynyl]-2-fluoro-benzoic acid]	> 10	0	> 10	0	> 10	1
C=C(c1cccc(C)c1)c1cc(C#Cc2ccc(C(=O)O)cc2)ccc1OC(C)C [Compound 31, 4-[[4'-Isopropoxy-3'-(1-m-tolyl)vinyl]phenylethynyl]benzoic acid]	> 10	0	> 10	4	> 10	2
Cc1ccc(C(=O)c2cc(C#Cc3ccc(C(=O)O)cc3)ccc2O)cc1 [Compound 5, 4-[[4'-hydroxy-3'-(4"-methyl)benzoyl]phenylethynyl]benzoic acid]	> 10	1	> 10	3	> 10	1
C=C(c1ccc(C)cc1)c1cccc(C#Cc2ccc(C(=O)O)cc2)c1 [Compound 20, 4-[[3'-(1-p-Tolyl)vinyl]phenylethynyl]benzoic acid]	> 10	9	> 10	5	> 10	1
C=C(c1ccc(C)cc1)c1cc(C#Cc2ccc(C(=O)O)cc2)ccc1OCOC [Compound 9, 4-[[4'-methoxymethoxy-3'-(1-p-tolyl)vinyl]phenylethynyl]benzoic acid]	> 10	1	> 10	3	> 10	5
